Measured values as given in paper PMC4371799 (Clinical Epigenetics, 2015).
“And” between values parts separate entries of the source, which are not always exact repeats. Equal values may be shown once. Read-outs that look alike come from different tables or passages of the source. Values belong to the compound of their own block, whether it stands above or below them.

Experiments:
CTR1 = test system: CTR1; set-up: method as in PMID 19470736; details: phase I clinical trial, refractory solid tumors and lymphomas; cited from earlier work
[1] = oxaliplatin treatment reported by other investigators; cited from earlier work
[2] = Total platinum levels in snap-frozen tumor samples (ICP-MS); assay type: in vivo, patients
Excerpt: The tumor tissue was frozen and stored in cryogenic storage tubes before being analyzed for total platinum content using inductively coupled plasma mass spectrometry. If a sufficient amount of the sample remained following this analysis, the tissue was subjected to homogenization and extraction with 0.2% formic acid and acetonitrile for analysis by ultra-performance liquid chromatography/mass spectrometry for oxaliplatin content.

[3] = set-up: method as in PMID 10778943; details: traditional infusion once every 2 to 3 weeks; cited from earlier work
[4] = Oxaliplatin plasma pharmacokinetics, non-compartmental analysis; details: for AUCall / AUCinf / C max / CL / V d / t 1/2: C1D2, mean (SD)
Experimental: This phase was followed by an expansion phase in which patients with CRC were treated with the maximum tolerated dose (MTD). Patients were treated with six cycles of therapy, unless they withdrew consent or experienced severe adverse events or progressive disease.
Oxaliplatin pharmacokinetics were assessed on day 2 during cycle 1 to permit correlation of pharmacokinetic parameters with toxicity and treatment outcome. Blood samples (10 ml per sample) were collected immediately prior to oxaliplatin infusion, immediately after infusion, and at 1, 2, 4, 6, 8, 12, and 24 h after infusion. Samples were assayed for total and unbound platinum using either inductively coupled plasma mass spectrometry or atomic absorption spectroscopy methods following isolation of the drug from plasma. Compartmental and non-compartmental models were used to derive pharmacokinetic parameters, including Cmax, AUC, t1/2, Vd, and CL.

[5] = Azacitidine plasma pharmacokinetics, non-compartmental analysis; assay type: in vivo, patients; details: for AUC / Cmax / half-life / AUC(0-inf): human, plasma, intravenous
Excerpt: Compartmental and non-compartmental modeling were used to derive pharmacokinetic parameters, including Cmax (maximum concentration), AUC (area under the curve), t1/2 (half-life of elimination), Vd (volume of distribution), and CL (clearance).

[6] = test system: platinum-resistant ovarian cancer cells; details: cited from earlier work
[7] = post-dose vs pre-dose, five post-dose tumor samples, dose level 6
[8] = seven patients, expansion phase, before treatment
[9] = azacitidine/oxaliplatin 20/15 mg/m^2, n = 3
[10] = azacitidine/oxaliplatin 20/22.5 mg/m^2, n = 3
[11] = azacitidine/oxaliplatin 20/30 mg/m^2, n = 3
[12] = azacitidine/oxaliplatin 25/30 mg/m^2, n = 3
[13] = azacitidine/oxaliplatin 40/30 mg/m^2, n = 3
[14] = azacitidine/oxaliplatin 50/30 mg/m^2, n = 22
[15] = oxaliplatin 15 to 30 mg/m^2/day IV over 2 h, days 2 to 5, mean over dose levels
[16] = azacitidine/oxaliplatin 20/15 mg/m^2, C1D1, n = 3, mean (SD)
[17] = azacitidine/oxaliplatin 20/15 mg/m^2, C1D5, n = 3, mean (SD)
[18] = azacitidine/oxaliplatin 20/22.5 mg/m^2, C1D1, n = 3, mean (SD)
[19] = azacitidine/oxaliplatin 20/22.5 mg/m^2, C1D5, n = 3, mean (SD)
[20] = azacitidine/oxaliplatin 20/30 mg/m^2, C1D1, n = 3, mean (SD)
[21] = azacitidine/oxaliplatin 20/30 mg/m^2, C1D5, n = 3, mean (SD)
[22] = azacitidine/oxaliplatin 25/30 mg/m^2, C1D1, n = 3, mean (SD)
[23] = azacitidine/oxaliplatin 25/30 mg/m^2, C1D5, n = 3, mean (SD)
[24] = azacitidine/oxaliplatin 40/30 mg/m^2, C1D1, n = 3, mean (SD)
[25] = azacitidine/oxaliplatin 40/30 mg/m^2, C1D5, n = 3, mean (SD)
[26] = azacitidine/oxaliplatin 50/30 mg/m^2, C1D1, n = 22, mean (SD)
[27] = azacitidine/oxaliplatin 50/30 mg/m^2, C1D5, n = 22, mean (SD)

SMILES: Nc1ncn([C@H]2C[C@H](O)[C@@H](CO)O2)c(=O)n1 [decitabine]
effect on CTR1 expression (CTR1): significantly increased CTR1 expression

SMILES: O=C1[O][Pt]2([NH][C@@H]3CCCC[C@H]3[NH]2)[O]C1=O [oxaliplatin]
incidence of peripheral neuropathy, all grades [1]: 40% to 50
incidence of peripheral neuropathy, grade ≥3 [1]: 10% to 20
increase of tumor platinum concentration, median [2, 7]: 3.8 fold
increase of tumor platinum concentration, range [2, 7]: 3- to 18 fold
change of tumor platinum concentration ([2]; post-dose vs pre-dose, the two tumor samples with the highest pre-dose level): remained unchanged
pre-dose platinum level in tumor, median [2, 8]: 0.59 μg/g tumor
pre-dose platinum level in tumor, range [2, 8]: <0.25 to 5.8 μg/g tumor
AUCinf, mean, traditional infusion [3]: 9,907 ng-h/ml
Cmax, mean, traditional infusion [3]: 877 ng/mL
AUCall [4, 9]: 704.3 (228.5) h-ng/ml
AUCinf [4, 9]: 1,003.5 (211.1) h-ng/ml
C max [4, 9]: 337.3 (141.3) ng/ml
CL [4, 9]: 15.5 (3.7) l/h/m^2
V d [4, 9]: 829.2 (580.0) l/m^2
t 1/2 [4, 9]: 38.9 (31.9) h
AUCall [4, 10]: 1,178.4 (238.0) h-ng/ml
AUCinf [4, 10]: 1,359.3 (167.1) h-ng/ml
C max [4, 10]: 573.5 (131.1) ng/ml
CL [4, 10]: 16.7 (2.0) l/h/m^2
V d [4, 10]: 443.5 (232.2) l/m^2
t 1/2 [4, 10]: 17.9 (7.7) h
AUCall [4, 11]: 1,149.0 (930.3) h-ng/ml
AUCinf [4, 11]: 1,411.6 (1,065.1) h-ng/ml
C max [4, 11]: 446.9 (447.8) ng/ml
CL [4, 11]: 29.1 (15.7) l/h/m^2
V d [4, 11]: 794.5 (703.8) l/m^2
t 1/2 [4, 11]: 18.6 (11.9) h
AUCall [4, 12]: 1,369.1 (556.1) h-ng/ml
AUCinf [4, 12]: 1,919.4 (923.3) h-ng/ml
C max [4, 12]: 582.6 (270.3) ng/ml
CL [4, 12]: 19.2 (11.4) l/h/m^2
V d [4, 12]: 587.5 (240.1) l/m^2
t 1/2 [4, 12]: 23.7 (10.2) h
AUCall [4, 13]: 1,543.5 (502.1) h-ng/ml
AUCinf [4, 13]: 1,867.0 (387.0) h-ng/ml
C max [4, 13]: 751.7 (275.5) ng/ml
CL [4, 13]: 16.6 (3.9) l/h/m^2
V d [4, 13]: 613.8 (541.2) l/m^2
t 1/2 [4, 13]: 23.3 (15.6) h
AUCall [4, 14]: 1,286.3 (627.0) h-ng/ml
AUCinf [4, 14]: 1,456 h-ng/ml and 1,455.9 (657.6) h-ng/ml
C max [4, 14]: 650 ng/ml and 649.4 (384.5) ng/ml
CL [4, 14]: 24.5 l/h/m^2 and 24.5 (10.2) l/h/m^2
V d [4, 14]: 554 l/m^2 and 554.0 (250.7) l/m^2
t 1/2 [4, 14]: 16.5 (7.1) h
AUCinf, mean of the current infusion regimen [4, 15]: 1,503 ng-h/ml
Cmax, mean of the current infusion regimen [4, 15]: 557 ng/mL
kinetics of elimination ([4]; plasma, all dose levels): first-order kinetics of elimination

CL [5, 16]: 167.1 (170.5) l/h/m^2
V d [5, 16]: 92.3 (58.9) l/m^2
CL [5, 17]: 136.7 (97.0) l/h/m^2
V d [5, 17]: 61.1 (35.4) l/m^2
CL [5, 18]: 62.7 (53.9) l/h/m^2
V d [5, 18]: 78.6 (54.4) l/m^2
CL [5, 19]: 62.9 (25.4) l/h/m^2
V d [5, 19]: 85.4 (69.0) l/m^2
CL [5, 20]: 239.3 (139.2) l/h/m^2
V d [5, 20]: 226.5 (253.4) l/m^2
CL [5, 21]: 146.1 (40.0) l/h/m^2
V d [5, 21]: 71.6 (19.0) l/m^2
CL [5, 22]: 168.6 (126.7) l/h/m^2
V d [5, 22]: 70.3 (35.7) l/m^2
CL [5, 23]: 150.0 (74.6) l/h/m^2
V d [5, 23]: 132.2 (62.5) l/m^2
CL [5, 24]: 616.6 (525.5) l/h/m^2
V d [5, 24]: 105.8 (37.0) l/m^2
CL [5, 25]: 253.0 (165.5) l/h/m^2
V d [5, 25]: 95.6 (57.3) l/m^2
AUCinf [5, 26]: 412.1 (195.7) h-ng/ml
C max [5, 26]: 581.1 (284.8) ng/ml
CL [5, 26]: 178 l/h/m^2 and 177.7 (155.9) l/h/m^2
V d [5, 26]: 121 l/m^2 and 120.6 (112.0) l/m^2
AUCinf [5, 27]: 431.5 (261.7) h-ng/ml
C max [5, 27]: 637.7 (428.6) ng/ml
CL [5, 27]: 156 l/h/m^2 and 156.2 (80.7) l/h/m^2
V d [5, 27]: 94 l/m^2 and 94.0 (50.7) l/m^2
AUC [5, 16]: 216 ng·h/mL
Cmax [5, 16]: 327 ng/mL
half-life [5, 16]: 32.4 min
AUC(0-inf) ([5]; azacitidine/oxaliplatin 20/15 mg/m^2, C1D1, n = 3, mean (SD), read-out: AUCinf): 221 ng·h/mL
AUC [5, 17]: 193 ng·h/mL
Cmax [5, 17]: 334 ng/mL
half-life [5, 17]: 21 min
AUC(0-inf) ([5]; azacitidine/oxaliplatin 20/15 mg/m^2, C1D5, n = 3, mean (SD), read-out: AUCinf): 196 ng·h/mL
AUC [5, 18]: 428 ng·h/mL
Cmax [5, 18]: 427 ng/mL
half-life [5, 18]: 653 min
AUC(0-inf) ([5]; azacitidine/oxaliplatin 20/22.5 mg/m^2, C1D1, n = 3, mean (SD), read-out: AUCinf): 2330 ng·h/mL
AUC(0-inf) ([5]; azacitidine/oxaliplatin 20/22.5 mg/m^2, C1D1, n = 3, median (footnote a), read-out: AUCinf, median): 259 ng·h/mL
AUC [5, 19]: 317 ng·h/mL
Cmax [5, 19]: 452 ng/mL
half-life [5, 19]: 76.2 min
AUC(0-inf) ([5]; azacitidine/oxaliplatin 20/22.5 mg/m^2, C1D5, n = 3, mean (SD), read-out: AUCinf): 357 ng·h/mL
AUC [5, 20]: 112 ng·h/mL
Cmax [5, 20]: 206 ng/mL
half-life [5, 20]: 32.4 min
AUC(0-inf) ([5]; azacitidine/oxaliplatin 20/30 mg/m^2, C1D1, n = 3, mean (SD), read-out: AUCinf): 125 ng·h/mL
AUC [5, 21]: 144 ng·h/mL
Cmax [5, 21]: 214 ng/mL
half-life [5, 21]: 20.4 min
AUC(0-inf) ([5]; azacitidine/oxaliplatin 20/30 mg/m^2, C1D5, n = 3, mean (SD), read-out: AUCinf): 146 ng·h/mL
AUC [5, 22]: 210 ng·h/mL
Cmax [5, 22]: 252 ng/mL
half-life [5, 22]: 19.8 min
AUC(0-inf) ([5]; azacitidine/oxaliplatin 25/30 mg/m^2, C1D1, n = 3, mean (SD), read-out: AUCinf): 216 ng·h/mL
AUC [5, 23]: 208 ng·h/mL
Cmax [5, 23]: 273 ng/mL
half-life [5, 23]: 43.2 min
AUC(0-inf) ([5]; azacitidine/oxaliplatin 25/30 mg/m^2, C1D5, n = 3, mean (SD), read-out: AUCinf): 214 ng·h/mL
AUC [5, 24]: 97.5 ng·h/mL
Cmax [5, 24]: 190 ng/mL
half-life [5, 24]: 9.6 min
AUC(0-inf) ([5]; azacitidine/oxaliplatin 40/30 mg/m^2, C1D1, n = 3, mean (SD), read-out: AUCinf): 100 ng·h/mL
AUC [5, 25]: 206 ng·h/mL
Cmax [5, 25]: 289 ng/mL
half-life [5, 25]: 16.2 min
AUC(0-inf) ([5]; azacitidine/oxaliplatin 40/30 mg/m^2, C1D5, n = 3, mean (SD), read-out: AUCinf): 212 ng·h/mL
AUC [5, 26]: 404 ng·h/mL
Cmax [5, 26]: 581 ng/mL
half-life [5, 26]: 40.2 min
AUC(0-inf) ([5]; azacitidine/oxaliplatin 50/30 mg/m^2, C1D1, n = 22, mean (SD), read-out: AUCinf): 412 ng·h/mL
AUC [5, 27]: 426 ng·h/mL
Cmax [5, 27]: 638 ng/mL
half-life [5, 27]: 25.2 min
AUC(0-inf) ([5]; azacitidine/oxaliplatin 50/30 mg/m^2, C1D5, n = 22, mean (SD), read-out: AUCinf): 432 ng·h/mL
SMILES: Nc1ncn([C@@H]2O[C@H](CO)[C@@H](O)[C@H]2O)c(=O)n1 [azacitidine]
dose-dependent interaction on mean systemic exposure (plasma AUCall) ([5]; azacitidine D1 and 5, with oxaliplatin): increasing the dose of oxaliplatin reduced the mean azacitidine exposure
effect on sensitivity to carboplatin [6]: enhance the sensitivity of platinum-resistant ovarian cancer cells to carboplatin
